{
  "source": "patent US5904915A",
  "about": "“Method of diagnosing pathological state of tumor cells using a diagnostic agent for glycometabolic function” (Nihon Medi-Physics Co., Ltd., priority 1996, dated 1999)",
  "key": {"[1]": {"tested_on": "GLUT", "experiment": "Effect of DNP on rate of uptake of 3-OMG (GLUT transport) in LS180 cells", "assay_type": "cell-based, human", "from_the_text": "While it is known that 2,4-dinitrophenol, an uncoupling agent for mitochondrion, causes expression of GLUT on cell membrane to normal cells by a transient decrease of intracellular ATP as a trigger, it has not been confirmed that it has a similar effect on tumor cells. Therefore, transport of [H-3]-3-O-methylglucose in the DNP-treated tumor cells was studied for the case in which GLUT was inhibited by cytocharasin B and for the case in which it was not inhibited, respectively. [H-3]-3-O-methylglucose is a D-glucose derivative which is not subjected to metabolism such as phosphorylation after take up into cells and therefore can suitably be used in an experiment for studying transport ability of GLUT. In the case of DNP treatment, accumulation of [H-3]-3-O-methylglucose was increased by about 70% as compared with the case of no treatment (Table 1), and therefore it was considered that the amount of GLUT expressed on the cell membrane was increased by 70% with the treatment by DNP. The increase in amount was by far smaller than the increase described for normal cells. This is due to the fact that the amount of GLUT expressed on the tumor cell membrane is by far greater than the amount for normal cells.\nFor studying uptake of [H-3 ]-3-O-methylglucose (3-OMG) into cells excluding nonspecific bonding, usually cytocharasin B is used. After incubating 10^6 LS180 cells in a medium containing 200 μM DNP placed in a plate having 24 holes, the medium was changed to a medium containing 5 μCi 3-OMG and 200 μM […], respectively, and additionally 50 μM cytocharasin B or a medium without cytocharasin B and the respective cultures were incubated for 60 seconds. Immediately after, the medium was removed and cells were washed three times with a cold PBS containing 0.1 mM phloretin and lysed with 500 μl of 0.2 N NaOH solution. After lysis, a 200 μl portion was used for quantitative determination of proteins and the remaining 300 μl was mixed with a scintillator and radioactivity was measured by a liquid scintillation counter (LSC 5000, manufactured by Aloka corporation). The taken-up amount of 3-OMG which may be inhibited by cytocharasin B was integrated from the difference in mean values of 10 holes in the plate for 3-OMG uptake without cytocharasin B. The results of the experiment are shown in Table 1."}, "[2]": {"tested_on": "LS180 cells", "experiment": "Time-course accumulation of FDG and AFDG in LS180 tumor cells", "assay_type": "cell-based, human", "description": "LS180 cells were stripped off from the petri dish using trypsin, inoculated on a plate having 24 holes at a concentration of 20×10^4 cells/ml and subjected to the uptake experiment after 24 hours. […] Radioactivity of the lysed solution was measured by an Autowell gamma counter (ARC-2000, manufactured by Aloka corporation)."}, "[3]": {"tested_on": "LS180 cells", "experiment": "Effect of extracellular glucose concentration on accumulation and metabolism of FDG and AFDG", "assay_type": "cell-based, human", "description": "Then, cells were washed three times with a cold PBS, lysed with 50% ethanol and the lysate was assayed for metabolites."}, "[4]": {"tested_on": "LS180 cells", "experiment": "Effect of IAA (hexokinase inhibition) on accumulation and metabolism of FDG and AFDG", "assay_type": "cell-based, human", "from_the_text": "(§1) Then, cells were washed three times with a cold PBS, lysed with 50% ethanol and assayed for metabolites."}, "[5]": {"tested_on": "LS180 cells", "experiment": "Effect of DNP on accumulation and metabolism of FDG and AFDG", "assay_type": "cell-based, human", "from_the_text": "as §1"}, "[6]": {"tested_on": "LS180 cells", "experiment": "Temperature dependence of intracellular accumulation of AFDG", "assay_type": "cell-based, human", "details": "60 minutes after administration, 5 μCi", "description": "In order to study the temperature dependence of intracellular accumulation of AFDG, an uptake experiment was conducted different from Experiment 1. Cells were suspended in a culture medium at a concentration of 1×10^6 cells/ml and incubated in portions of 1 ml at 4° C. or 37° C. for 15 minutes. Then, 5 μCi of AFDG was added and incubated for 2, 5, 10, 30 and 60 minutes, respectively. At every determined times, cells were centrifuged to make a pellet, which was washed with a cold PBS. After washing twice, the pellet was lysed by 0.2N NaOH solution and assayed for radioactivity."}, "[7]": {"tested_on": "LS180 cells", "experiment": "Effect of administered dose of AFDG on its intracellular accumulation", "assay_type": "cell-based, human", "details": "increase of the dose of AFDG"}, "[8]": {"tested_on": "LS180 cells", "experiment": "Metabolism of AFDG and FDG in LS180 cells (TLC of metabolites)", "assay_type": "cell-based, human", "description": "After carrying out an experiment according to Experiment 1, cells were stripped off from the plate using 100 μl of 50% ethanol and the solution was centrifuged at 15000 rpm. A 25 μl aliquot of supernatant was subjected to analysis of metabolites by thin-layer chromatography (TLC). The eluent was acetonitrile/water=95/5, and the carrier was silica gel 60. The plate after development was cut at 5 mm intervals and assayed for radioisotope with a gammer counter. Total radioactivity of respective metabolites were calculated from the ratio of metabolites obtained in TLC."}, "[9]": {"tested_on": "LS180 cells", "experiment": "Effect of AFDG administration on accumulation of glucose", "assay_type": "cell-based, human", "details": "amount used in this experiment"}, "[10]": {"tested_on": "hexokinase", "details": "5 μM IAA, 37° C.; inferred from accumulation of FDG", "from_the_text": "as §1"}},
  "note": "Entries after “also recorded” stand apart in the source; their conditions may differ. Read-outs that look alike come from different tables or passages of the source.",
  "data": [
    {"smiles": "O=[N+]([O-])c1ccc(O)c([N+](=O)[O-])c1", "note": "[DNP, 2,4-dinitrophenol]", "values": [
      {"measurement": "increase of amount of GLUT expressed on the cell membrane with DNP", "setting": "[1]; inferred from 3-OMG accumulation", "result": 70, "unit": "%"}
    ]},
    {"smiles": "OC[C@H]1OC(O)[C@H]([18F])[C@@H](O)[C@@H]1O", "note": "(stereo partly shown) [FDG, 2-[F-18]fluorodeoxyglucose, reference compound]", "values": [
      {"measurement": "accumulation in time course", "setting": "[2]", "result": "accumulated and increased almost linearly"},
      {"measurement": "intracellular accumulation on doubling glucose concentration in medium", "setting": "[3]", "result": "decreased"},
      {"measurement": "intracellular accumulation in the presence of IAA", "setting": "[4]", "result": "remarkably decreased"},
      {"measurement": "intracellular accumulation in the presence of DNP", "setting": "[5]", "result": "increased"},
      {"measurement": "activation at 200 µM", "setting": "[5]; Homo sapiens, LS180, read-out: increase of uptake of FDG with DNP", "result": "~80", "unit": "%"}
    ]},
    {"smiles": "CC(=O)OC[C@H]1OC(OC(C)=O)[C@H]([18F])[C@@H](OC(C)=O)[C@@H]1OC(C)=O", "note": "(stereo partly shown) [AFDG, 1,3,4,6-tetra-O-acetyl-2-[F-18]fluorodeoxyglucose]", "values": [
      {"measurement": "accumulation in time course", "setting": "[2]; LS180 cells, 2 to 60 minutes, 5 μCi", "result": "accumulated rapidly in cells in a nonlinear manner"},
      {"measurement": "mechanism of uptake into cells", "setting": "[2]; concluded from the experiments", "result": "taken up by simple diffusion"},
      {"measurement": "accumulation of AFDG at 4° C. relative to that at 37° C.", "setting": "[6]", "result": "one fourth"},
      {"measurement": "change in intracellular accumulation with administered dose", "setting": "[7]", "result": "increased with the increase of the dose of AFDG"},
      {"measurement": "presence of FDG and FDG-6P in cells after uptake of AFDG", "setting": "[8]; 5 minutes after administration", "result": "substantially absent"},
      {"measurement": "production of FDG-6P from AFDG relative to that from FDG", "setting": "[8]; 60 minutes after administration", "result": 1.63, "unit": "times"},
      {"measurement": "FDG-6P share of total intracellular radioactivity (sum of AFDG, FDG and FDG-6P)", "setting": "[8]; 60 minutes after administration of AFDG", "result": "about 50%"},
      {"measurement": "hydrolysis of AFDG to FDG in cells", "setting": "[8]; by esterase, intracellular", "result": "quickly hydrolyzed by esterase to FDG and quickly hydrolyzed to form FDG and fast"},
      {"measurement": "stability in the extracellular medium", "setting": "[8]; extracellular medium", "result": "stable"},
      {"measurement": "velocity of hydrolysis of AFDG compared with phosphorylation of FDG", "setting": "[8]; intracellular", "result": "greater"},
      {"measurement": "accumulation of AFDG and that of FDG after administration of AFDG", "setting": "[8]; time course after 5 minutes", "result": "followed a constant course"},
      {"measurement": "accumulation of FDG-6P after administration of AFDG", "setting": "[8]; time course after 5 minutes", "result": "increased linearly with passage of time"},
      {"measurement": "production of FDG-6P on doubling glucose concentration in medium", "setting": "[3]; 11.2 mM vs 22.4 mM glucose, 60 minutes", "result": "did not change; also recorded: no change was observed; also recorded: substantially not affected"},
      {"measurement": "intracellular accumulation on doubling glucose concentration in medium", "setting": "[3]; 11.2 mM vs 22.4 mM glucose, 60 minutes, after AFDG: accumulation of FDG (hydrolysate)", "result": "did not change; also recorded: substantially not affected"},
      {"measurement": "intracellular accumulation in the presence of IAA", "setting": "[4]; 5 μM IAA, 37° C.", "result": "remarkably decreased"},
      {"measurement": "FDG-6P derived from AFDG in the presence of DNP", "setting": "[5]; 200 μM DNP, 37° C.", "result": "decreased"},
      {"measurement": "intracellular accumulation in the presence of DNP", "setting": "[5]; 200 μM DNP, 37° C.", "result": "decreased"},
      {"measurement": "accumulation of glucose when AFDG was administered", "setting": "[9]", "result": "not inhibited"}
    ]},
    {"smiles": "O=C(O)CI", "note": "[IAA, iodoacetate]", "values": [
      {"measurement": "hexokinase activity in the presence of IAA", "setting": "[10]", "result": "remarkably decreased"}
    ]},
    {"smiles": "CO[C@H]1[C@H](O)[C@@H](CO)OC(O)[C@@H]1O", "note": "(stereo partly shown) [[H-3]3-OMG, [H-3]-3-O-methylglucose]", "values": [
      {"measurement": "Accumulation of [H-3]3-OMG, Difference, DNP treatment", "setting": "[1]; Cytocharasin B absent minus present, 200 μM DNP", "result": 3460, "unit": "dpm/min/100 μg protein"},
      {"measurement": "Accumulation of [H-3]3-OMG, Difference, Control", "setting": "[1]; Cytocharasin B absent minus present, no DNP", "result": 2014, "unit": "dpm/min/100 μg protein"},
      {"measurement": "Accumulation of [H-3]3-OMG, DNP treatment", "setting": "[1]; Cytocharasin B absent, 200 μM DNP", "result": "4763 ± 669", "unit": "dpm/min/100 μg protein"},
      {"measurement": "Accumulation of [H-3]3-OMG, Control", "setting": "[1]; Cytocharasin B absent, no DNP", "result": "3235 ± 307", "unit": "dpm/min/100 μg protein"},
      {"measurement": "Accumulation of [H-3]3-OMG, DNP treatment", "setting": "[1]; Cytocharasin B present (50 μM), 200 μM DNP", "result": "1303 ± 229", "unit": "dpm/min/100 μg protein"},
      {"measurement": "Accumulation of [H-3]3-OMG, Control", "setting": "[1]; Cytocharasin B present (50 μM), no DNP", "result": "1511 ± 231", "unit": "dpm/min/100 μg protein"},
      {"measurement": "increase of accumulation of [H-3]-3-O-methylglucose with DNP treatment", "setting": "[1]; compared with no treatment", "result": "about 70%"},
      {"measurement": "Difference relative to control, Control", "setting": "[1]; in parentheses, no DNP", "result": 1.00},
      {"measurement": "Difference relative to control, DNP treatment", "setting": "[1]; ls180 cells, 200 µM", "result": 1.71}
    ]}
  ]
}
